Experimental findings from US5639899A, “Prostaglandin E1 analogues” (Taisho Pharmaceutical Co., Ltd., priority 1991, dated 1997) are described below.

One assay relates to Rabbit Blood Platelet. Briefly: Rabbit Blood Platelet Aggregation Inhibition Test. It is filed as cell-based, rabbit (New Zealand white strain). The conditions noted are these: Oryctolagus cuniculus, rabbit PRP, ADP 5 μM, 37° C., mean value. As to the method:
Groups of four New Zealand white strain rabbits, each weighing 2.5 to 4.0 kg, were used for the test. […] The collected blood was Centrifuged at 1100 rpm for 15 minutes to give platelet rich plasma (PRP) as a supernatant. […] 194, page 927 (1962)]. That is, 1 μl of the test drug dissolved in ethanol at the desired concentration was added to 275 μl of PRP, and the mixture was stirred at 1000 rpm at 37° C.
The aggregation inhibition rate was calculated on the basis of the aggregation obtained by using ethanol in place of the test drug solution, and the aggregation inhibition activity was expressed as IC50 value which was determined from the dose response curve.
Results are shown in Table 2 wherein the compound number is as defined in the examples described hereinafter, and the IC50 value is expressed as the mean value.

The nature of assay [1]: Blood Pressure Lowering Test in Anesthetized Dogs. It is filed as in vivo, dog (male mongrel). The conditions noted are these: intravenous. As to the method:
Male mongrel dogs, weighing 13 kg, were anesthetized by intravenous administration of 30 mg/kg of sodium pentobarbital. A cannula inserted into the left femoral […] was attached to a blood pressure transducer to measure blood pressure. A solution of the test drug in ethanol, if necessary, was diluted with ethanol. 10 μl of the solution was administered through the vein via a cannula inserted into the left anterior limb vein. The blood pressure lowering rate by the test drug was calculated by the following formula: [formula]

In assay [2] the test system is Guinea-pig Blood Platelet. Briefly: Guinea-pig Blood Platelet Aggregation Inhibition Test (oral administration, aggregation measured in PRP). It is filed as in vivo, guinea-pig (male Hartley strain). The following applies: 50 μg/kg. From the text: The effects of the present invention are illustrated in more detail by the following experiments. Experiment 1 [Guinea-pig Blood Platelet Aggregation Inhibition Test]
194, page 927 (1962)]. […] [formula]
In the table are recited data of the compound obtained by converting the triple bond between the 13- and 14-positions of Compound 9 of Example 23 into a double bond as a comparative compound (limaprost) [Tsuboi et al, Arch. Intern. Pharmacodyn. Ther., vol. 247, page 89 (1980)].

The structures appear in SMILES notation.

Compound `CCCCC[C@H](O)/C=C/[C@H]1[C@H](O)CC(=O)[C@@H]1CCCCCCC(=O)O` [PGE1] came in with a 50% inhibitory concentration (IC50) in the assay on Rabbit Blood Platelet of 26 nM. Moreover, the “blood pressure lowering rate” value in assay [1] (1 μg/kg) was determined as 13.9%; in assay [1] (3 μg/kg), 23.7%.

Turning to `CCCC[C@H](C)C[C@H](O)C#C[C@H]1[C@H](O)CC(=O)[C@@H]1CCCCC#CC(=O)O` [Compound 12, (17S)-17,20-Dimethyl-2,2,3,3,13,14-hexadehydro-PGE1], the concentration for half-maximal inhibition (IC50) in the assay on Rabbit Blood Platelet came to 5.1 nM. This counts as single-digit nanomolar.

For `CCCC[C@H](C)C[C@H](O)C#C[C@H]1[C@H](O)CC(=O)[C@@H]1CCCCC#CC(=O)OC` [Compound 4, (71S)-17,20-Dimethyl-2,2,3,3,13,14-hexadehydro-PGE1 Methyl Ester], half-maximal inhibition in the assay on Rabbit Blood Platelet (IC50) required 3 nM.

As for `CCCC[C@H](C)C[C@H](O)C#C[C@H]1[C@H](O)CC(=O)[C@@H]1CCCC/C=C/C(=O)O` [Compound 9, (2E,17S)-17,20-Dimethyl-2,3,13,14-tetradehydro-PGE1], the IC50 in the assay with Rabbit Blood Platelet was determined as 2.6 nM. Also, the “Aggregation Inhibition Rate, ADP Aggregation, 2 hours after administration” value in assay [2] (ADP 3 μM) turned out to be 26.4%. The “Aggregation Inhibition Rate, Collagen Aggregation, 2 hours after administration” value in assay [2] (collagen 3 μg/ml) is given as 28.4%. The “blood pressure lowering rate” value in assay [1] (0.03 μg/kg) is on record as 23.7%.

For the compound `CCC#CCC(C)[C@H](O)C#C[C@H]1[C@H](O)CC(=O)[C@@H]1CCCC/C=C/C(=O)OC` (stereo partly drawn) [Compound 2, (2E,16RS)-16,20-Dimethyl-2,3,13,14,18,18,19,19-octadehydro-PGE1 Methyl Ester], the half-maximal inhibitory concentration (IC50) in the assay with Rabbit Blood Platelet is 1.7 nM. This lies in the single-digit nanomolar range.

With `CCCC[C@@H](C)C[C@H](O)C#C[C@H]1[C@H](O)CC(=O)[C@@H]1CCCCC#CC(=O)OC` [Compound 8, (17R)-17,20-Dimethyl-2,2,3,3,13,14-hexadehydro-PGE1 Methyl Ester], half-maximal inhibition with Rabbit Blood Platelet (IC50) required 0.74 nM.

In turn, `COC(=O)/C=C/CCCC[C@H]1C(=O)C[C@@H](O)[C@@H]1C#C[C@@H](O)C1CCCCC1` [Compound 3, (2E)-16,17,18,19,20-Pentanor-15-cyclohexyl-2,3,13,14-tetradehydro-PGE1Methyl Ester] came in with an IC50 in the assay with Rabbit Blood Platelet of 6 nM. In assay [1] (0.03 μg/kg), the “blood pressure lowering rate” value is listed as 11.5%.

The compound `CCCC[C@H](C)C[C@H](O)C#C[C@H]1[C@H](O)CC(=O)[C@@H]1CCCCCC/C=C/C(=O)O` [Compound 15, (2E,17S)-2a,2b-Dihomo-17,20-dimethyl-2,2a,13,14-tetradehydro-PGE1] came in with an IC50 in the assay on Rabbit Blood Platelet of 5.1 nM. This counts as single-digit nanomolar.

On to `CCC#CCC(C)[C@H](O)C#C[C@H]1[C@H](O)CC(=O)[C@@H]1CCCC/C=C/C(=O)O` (stereo partly drawn) [Compound 10, (2E,16RS)-16,20-Dimethyl-2,3,13,14,18,18,19,19-octadehydro-PGE1], for which, in the assay with Rabbit Blood Platelet, the half-maximal inhibitory concentration (IC50) is 1.1 nM. Compared with the last compound, the IC50 is about 4.6-fold lower.

In the assay with Rabbit Blood Platelet, `COC(=O)C#CCCCC[C@H]1C(=O)C[C@@H](O)[C@@H]1C#C[C@@H](O)CC(C)CCC=C(C)C` (stereo partly drawn) [Compound 7, (17RS)-20-Nor-17-methyl-19-(2'-methylprop-1'-enyl)-2,2,3,3,13,14-hexadehydro-PGE1 Methyl Ester] returned a concentration for half-maximal inhibition (IC50) of 1.1 nM.

Consider `CCCC[C@@H](C)C[C@H](O)C#C[C@H]1[C@H](O)CC(=O)[C@@H]1CCCCC#CC(=O)O` [Compound 16, (17R)-17,20-Dimethyl-2,2,3,3,13,14-hexadehydro-PGE1], for which the concentration for half-maximal inhibition (IC50) in the assay on Rabbit Blood Platelet was found to be 0.37 nM.

Take `CCCC[C@@H](C)C[C@H](O)C#C[C@H]1[C@H](O)CC(=O)[C@@H]1CCCC/C=C/C(=O)OC` [Compound 5, (2E,17R)-17,20-Dimethyl-2,3,13,14-tetradehydro-PGE1 Methyl Ester]: the IC50 in the assay on Rabbit Blood Platelet worked out at 1.4 nM. Also, the “Aggregation Inhibition Rate, ADP Aggregation, 2 hours after administration” value in assay [2] (ADP 3 μM) is 25.9%. Also, the “Aggregation Inhibition Rate, Collagen Aggregation, 2 hours after administration” value in assay [2] (collagen 3 μg/ml) stood at 1.6%.

Take `CCCC[C@H](C)C[C@H](O)/C=C/[C@H]1[C@H](O)CC(=O)[C@@H]1CCCC/C=C/C(=O)O` [limaprost, reference compound]: the 50% inhibitory concentration (IC50) with Rabbit Blood Platelet was 6.3 nM. The “Aggregation Inhibition Rate, ADP Aggregation, 2 hours after administration” value in assay [2] (ADP 3 μM) worked out at 3.4%. Besides, the “Aggregation Inhibition Rate, Collagen Aggregation, 2 hours after administration” value in assay [2] (collagen 3 μg/ml) is given as 16.2%. For the same compound, the “blood pressure lowering rate” value came to 13.9% in assay [1] (0.5 μg/kg) and 23.8% in assay [1] (1 μg/kg).

Turning to `CCCC[C@@H](C)C[C@H](O)C#C[C@H]1[C@H](O)CC(=O)[C@@H]1CCCC/C=C/C(=O)O` [Compound 14, (2E,17R)-17,20-Dimethyl-2,3,13,14-tetradehydro-PGE1], inhibition in the assay on Rabbit Blood Platelet was half-maximal at 1.3 nM (IC50). Also, the “Aggregation Inhibition Rate, ADP Aggregation, 2 hours after administration” value in assay [2] (ADP 3 μM) was 52.5%. The “Aggregation Inhibition Rate, Collagen Aggregation, 2 hours after administration” value in assay [2] (collagen 3 μg/ml) is 100.0%. Besides, the “Aggregation Inhibition Rate, ADP Aggregation, 8 hours after administration” value in assay [2] (8 hours after administration, ADP 3 μM) amounted to 31.8%. For the same compound, the “Aggregation Inhibition Rate, Collagen Aggregation, 8 hours after administration” value in assay [2] (8 hours after administration, collagen 3 μg/ml) is 61.0%.

Turning to `O=C(O)/C=C/CCCC[C@H]1C(=O)C[C@@H](O)[C@@H]1C#C[C@@H](O)C1CCCCC1` [Compound 11, (2E)-16,17,18,19,20-Pentanor-15-cyclohexyl-2,3,13,14-tetradehydro-PGE1], the concentration for half-maximal inhibition (IC50) with Rabbit Blood Platelet amounted to 6.3 nM.

Consider `CCCC[C@H](C)C[C@H](O)C#C[C@H]1[C@H](O)CC(=O)[C@@H]1CCCC/C=C/C(=O)OC` [Compound 1, (2E,17S)-17,20-Dimethyl-2,3,13,14-tetradehydro-PGE1 Methyl Ester], for which the “Aggregation Inhibition Rate, ADP Aggregation, 2 hours after administration” value in assay [2] (ADP 3 μM) was found to be 9.8%. For the same compound, the “Aggregation Inhibition Rate, Collagen Aggregation, 2 hours after administration” value in assay [2] (collagen 3 μg/ml) stood at 25.7%. Moreover, the “blood pressure lowering rate” value in assay [1] (0.03 μg/kg) is 10.1%.

The compound `CCCCCC(C)C[C@H](O)C#C[C@H]1[C@H](O)CC(=O)[C@@H]1CCCC/C=C/C(=O)O` (stereo partly drawn) [Compound 13, (2E,17RS)-17-Methyl-20-ethyl-2,3,13,14-tetradehydro-PGE1] yielded a half-inhibitory concentration (IC50) with Rabbit Blood Platelet of 2.7 nM.

For the compound `CCCCOC(=O)C#CCCCC[C@H]1C(=O)C[C@@H](O)[C@@H]1C#C[C@@H](O)C[C@@H](C)CCCC` [Compound 6, (17S)-17,20-Dimethyl-2,2,3,3,13,14-hexadehydro-PGE1 n-butyl Ester], in assay [2] (ADP 3 μM), the “Aggregation Inhibition Rate, ADP Aggregation, 2 hours after administration” value was determined as 22.8%. The “Aggregation Inhibition Rate, Collagen Aggregation, 2 hours after administration” value in assay [2] (collagen 3 μg/ml) is 58.2%.
